Patent publication US20200330615A1, “NONINVASIVE IMAGING OF FOCAL ATHEROSCLEROTIC LESIONS USING FLUORESCENCE MOLECULAR TOMOGRAPHY” (Washington University, priority 2015, published 2020)
“Also recorded” adds a separate entry of the source. Bridge positions count the residues as written; N and C are the ends. cypate = near infrared fluorescent dye cypate

Tests used:
[1] = tested on: NPR-C expressing macrophages; assay: Ex vivo staining of paraffin fixed artery sections with LS668, fluorescence microscopy; design: species or system rabbit; fluorescence signal of control artery section after ex vivo staining: dose or concentration left out as unconfirmed; details: 30 min, 37° C.
Method: FIG. 3A, FIG. 3B and FIG. 3C depict images showing ex vivo studies on the paraffin fixed sections of injured (top row) and control artery (bottom row) sections obtained at 8 weeks postsurgery. FIG. 3A depicts bright field images showing IEL, internal elastic lamina; A, adventitia; M, media; 1° NEO, primary neointima. Scale: 500 m. FIG. 3B depicts corresponding fluorescence images (excitation/emission: 710 75 nm 810 90 nm) after ex vivo staining with LS668. Scale: 500 m. FIG. 3C depicts immunohistochemistry on tissue sections with clone RAM11 antibody (1:100 dilution; blue) for macrophages and counterstained with nuclear fast red. Scale: 250 m. Ex vivo histological validation studies were performed on the arteries at week 8 following the final imaging session. Prior to collecting the arterial segments, the vascular system was flushed with saline and then perfusion fixed with 4% paraformaldehyde and paraffin embedded. Tissue sections were deparaffinized for further studies. […] Histology sections were also stained for macrophages with mouse monoclonal antibody to rabbit macrophages (clone RAM11). Positive signal was visualized using alkaline phosphatase-conjugated secondary antibody and blue substrate, and nuclear fast red counterstain. […] Serial sections were also stained for alpha-smooth muscle actin (SMA).

NPR-A = biological target: T1, NPR-A (Homo sapiens, UniProt P16066); assay: Cellular internalization of LS668 in control 293T-NPR-A cells (fluorescence microscopy); type: cell-based
T1 construct: expressed in transfected cells; host or cells: 293T
T1 sequence (P16066 33-1061): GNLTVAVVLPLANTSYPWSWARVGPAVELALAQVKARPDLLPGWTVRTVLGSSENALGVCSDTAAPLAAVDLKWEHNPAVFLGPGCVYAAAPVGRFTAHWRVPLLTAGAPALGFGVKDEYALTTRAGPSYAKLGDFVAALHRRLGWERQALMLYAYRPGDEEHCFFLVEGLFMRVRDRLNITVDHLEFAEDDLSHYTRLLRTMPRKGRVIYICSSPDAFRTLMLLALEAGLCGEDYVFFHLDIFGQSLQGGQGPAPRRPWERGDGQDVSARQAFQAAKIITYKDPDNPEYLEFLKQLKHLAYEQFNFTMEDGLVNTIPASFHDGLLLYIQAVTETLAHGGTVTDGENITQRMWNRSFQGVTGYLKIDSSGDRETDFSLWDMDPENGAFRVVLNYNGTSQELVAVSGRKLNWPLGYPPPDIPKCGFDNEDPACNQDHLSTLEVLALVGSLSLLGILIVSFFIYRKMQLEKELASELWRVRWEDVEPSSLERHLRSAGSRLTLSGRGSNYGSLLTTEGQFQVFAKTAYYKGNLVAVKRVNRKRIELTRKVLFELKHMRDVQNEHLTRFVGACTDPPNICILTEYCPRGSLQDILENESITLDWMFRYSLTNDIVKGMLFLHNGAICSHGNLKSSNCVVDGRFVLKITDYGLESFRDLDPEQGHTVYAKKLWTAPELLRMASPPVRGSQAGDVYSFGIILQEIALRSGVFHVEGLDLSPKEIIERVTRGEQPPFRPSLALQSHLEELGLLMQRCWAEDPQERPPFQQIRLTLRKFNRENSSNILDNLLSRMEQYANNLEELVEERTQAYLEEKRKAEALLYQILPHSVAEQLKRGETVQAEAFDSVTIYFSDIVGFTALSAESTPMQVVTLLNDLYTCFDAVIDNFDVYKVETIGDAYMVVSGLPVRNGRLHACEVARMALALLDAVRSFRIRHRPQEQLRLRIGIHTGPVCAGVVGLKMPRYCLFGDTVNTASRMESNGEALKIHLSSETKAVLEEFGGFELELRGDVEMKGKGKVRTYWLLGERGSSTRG

[2] = design: species or system New Zealand white rabbits; details: rabbit, in vivo
Description: A model of focal atherosclerotic-like plaques in the femoral arteries (located 1 to 1.5 cm from skin surface) of New Zealand white rabbits was used. All animal studies performed were approved by the Washington University Animal Studies Committee. Endothelial denudation of surgically exposed right femoral artery was induced by air desiccation of the luminal surface as described previously.^4 The uninjured left femoral artery served as the internal control. The animals were maintained on a cholesterol-enriched diet (>200 mg dL in blood), and over time the air desiccation led to a focal lesion. In this animal model, anatomical coregistration was not used because the location of the lesion was apparent due to the surgical markings and identification by the surgeon at each imaging session. […] NPR-C (clearance receptor) removes NPs from circulation by receptor mediated endocytosis.^6 A bioconjugate LS668 (Cypate-RSSc[[…]]) (SEQ ID NO:3), consisting of a near infrared (NIR) fluorescent dye cypate conjugated to a targeting peptide, C-type atrial natriuretic peptide, specific for NPR-C was evaluated (FIG. 1A). […] Integrated fluorescence signal (directly related to the quantity of LS668 in tissue) was calculated from each tissue volume (thresholded at above 20% of respective maximum signal) (FIG. 2H). […]

[3] = tested on: C-type natriuretic peptide receptors (NPR-C) on focal atherosclerotic lesions; assay: In vivo fluorescence molecular tomography (FMT) of focal atherosclerotic lesions in femoral arteries; design: species or system New Zealand white rabbits; details: for integrated fluorescence signal, difference between control and injured arteries, P (unpaired t test, two tailed): n=3
Description: Carotid artery atherosclerosis is classified as an important cause of stroke. Unstable plaque is characterized by an eccentric neo-intimal lesion with a lipid core covered by a thinning cap of smooth muscle cells, active angiogenesis, increased matrix metalloproteinase activity, and translocation of monocyte/macrophages that transform into foam cells. Timely noninvasive imaging that could signal prerupture plaque progression will reduce the morbidity and mortality by allowing early intervention.^1 Although positron emission tomography (PET) and magnetic resonance imaging (MRI) are routinely used for metabolic and morphologic imaging, these modalities are not suited for frequent monitoring or even screening of at-risk patients because of ionizing radiation (PET) and expense (PET, MRI). Transcutaneous Doppler and intravascular ultrasound are insensitive to the subtle molecular changes of critical importance. Fluorescence molecular tomography (FMT) is an emerging optical imaging technology that allows tomographic and quantitative visualization of molecular events in vivo.^2 In this study, a custom built, fiber-based, portable, video-rate FMT system was used for proof-of-principle studies to detect C-type natriuretic peptide receptors (NPR-C) on focal atherosclerotic lesions in the superficial rabbit femoral arteries. The FMT system consisted of a flexible imaging pad (3 cm×3 cm), containing 12 sources 785 nm 20 kHz, and 830 nm 17-kHz laser diodes as excitation source and reference, respectively.^3 The detectors allowed for dynamic concurrent acquisition of frequency encoded fluorescence emission (830 nm; 20 kHz) and transmission reference (830 nm; 17 kHz) signals for the fast generation of ratio-metric data for tomographic reconstruction of the tissue volume. The system could report varying concentrations (1 nM to 1 M) of indocyanine green at various depths up to 13.5 mm with a depth-dependent spatial resolution on the order of 12 mm.^3
A model of focal atherosclerotic-like plaques in the femoral arteries (located 1 to 1.5 cm from skin surface) of New Zealand white rabbits was used. All animal studies performed were approved by the Washington University Animal Studies Committee. Endothelial denudation of surgically exposed right femoral artery was induced by air desiccation of the luminal surface as described previously.^4 The uninjured left femoral artery served as the internal control. The animals were maintained on a cholesterol-enriched diet (>200 mg dL in blood), and over time the air desiccation led to a focal lesion. In this animal model, anatomical coregistration was not used because the location of the lesion was apparent due to the surgical markings and identification by the surgeon at each imaging session. In a clinical setting, coregistration of the FMT probe with the ultra sound (US) probe can be utilized. […] Natriuretic peptides (NPs) play an important role in regulating cardiovascular homeostasis. NPR-C (clearance receptor) removes NPs from circulation by receptor mediated endocytosis.^6 A bioconjugate LS668 (Cypate-RSSc[[…]]) (SEQ ID NO:3), consisting of a near infrared (NIR) fluorescent dye cypate conjugated to a targeting peptide, C-type atrial natriuretic peptide, specific for NPR-C was evaluated (FIG. 1A). […] Both injured and control femoral arteries of three animals were imaged at day 3 and weeks 1, 2, 4, 6, and 8 following the surgery. […]

[4] = Ex vivo tissue biodistribution, injured vs control femoral artery; type: in vivo, New Zealand white rabbits; details: 24-h post-injection at week 8, n=2
Description: FIG. 2A, FIG. 2B, FIG. 2C, FIG. 2D, FIG. 2E, FIG. 2F, FIG. 2G, FIG. 2H and FIG. 2I depict images showing coronal (depth=7 mm), sagittal and transverse sections of reconstructed fluorescence molecular tomography (FMT) signal from injured artery (FIG. 2A, FIG. 2B, FIG. 2C) and corresponding control artery (FIG. 2D, FIG. 2E, FIG. 2F) from a representative animal (rabbit 1). White lines indicate the position of the respective sagittal and transverse sections. […] FIG. 2H depicts a graph showing time dependent changes in integrated fluorescence signal (mean SD, n=3) for injured and control arteries (*P=0.0283; **P=0.0282). FIG. 2I depicts a graph showing the mean (n=2) fluorescence intensity obtained from the ex vivo injured artery containing the lesion and the control artery.
A model of focal atherosclerotic-like plaques in the femoral arteries (located 1 to 1.5 cm from skin surface) of New Zealand white rabbits was used. All animal studies performed were approved by the Washington University Animal Studies Committee. […] NPR-C (clearance receptor) removes NPs from circulation by receptor mediated endocytosis.^6 A bioconjugate LS668 (Cypate-RSSc[[…]]) (SEQ ID NO:3), consisting of a near infrared (NIR) fluorescent dye cypate conjugated to a targeting peptide, C-type atrial natriuretic peptide, specific for NPR-C was evaluated (FIG. 1A). […]

NPR-C = biological target: T2, NPR-C (Homo sapiens, UniProt P17342); assay: Cellular internalization of LS668 in stably transfected 293T-NPR-C cells (fluorescence microscopy); type: cell-based; design: cellular internalization in presence of excess C-ANF peptide: dose or concentration left out as unconfirmed
T2 construct: expressed in transfected cells; host or cells: 293T
T2 sequence (P17342 27-541): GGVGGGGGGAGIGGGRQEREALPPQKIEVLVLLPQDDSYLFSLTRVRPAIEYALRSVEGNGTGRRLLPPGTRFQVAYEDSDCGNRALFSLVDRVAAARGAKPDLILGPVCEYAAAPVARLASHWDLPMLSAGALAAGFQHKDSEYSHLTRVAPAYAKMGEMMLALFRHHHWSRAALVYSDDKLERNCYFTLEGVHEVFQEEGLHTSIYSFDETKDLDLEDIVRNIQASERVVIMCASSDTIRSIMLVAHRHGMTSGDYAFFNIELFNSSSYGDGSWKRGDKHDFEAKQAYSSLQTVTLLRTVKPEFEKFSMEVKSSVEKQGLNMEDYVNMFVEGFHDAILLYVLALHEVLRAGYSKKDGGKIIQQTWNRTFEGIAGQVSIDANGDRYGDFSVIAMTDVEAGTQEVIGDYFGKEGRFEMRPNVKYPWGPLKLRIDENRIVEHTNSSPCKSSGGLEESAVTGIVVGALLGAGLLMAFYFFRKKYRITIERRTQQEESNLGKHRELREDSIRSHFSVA

[5] = 0.1 mg kg intravenous, FMT 24 h later

Cypate-RSSc[CFGGRIDRIGAC] (cypate-RSSCFGGRIDRIGAC-NH2; disulfide 4-15 (inferred); not fully specified) [LS668]
fluorescence signal of control artery section after ex vivo staining ([1]; week 8 control artery): uniform fluorescence signal akin to nonspecific background
fluorescence signal of injured artery section after ex vivo staining ([1]; LS668 10 M, week 8 injured artery, layers between adventitia and lumen): increased signal
cellular internalization in control cells (NPR-A): did not internalize; also recorded: absence of internalization
time at which clearance from blood was achieved [2]: 24 h
uptake by tissue surrounding the localized fluorescent region [3, 5]: negligible nonspecific uptake
uptake in contralateral noninjured control femoral artery [3, 5]: negligible background uptake
accumulation at focal lesion (reconstructed FMT data) ([3]; 0.1 mg kg intravenous, FMT 24 h later, injured artery, depth of 4 to 16 mm, over 15 mm of length): localized fluorescence signal indicating accumulation of LS668
integrated fluorescence signal, difference between control and injured arteries, P (unpaired t test, two tailed) ([3]; week 2 after surgery): 0.0283
integrated fluorescence signal, difference between control and injured arteries, P (unpaired t test, two tailed) ([3]; week 6 after surgery): 0.0282
localization into injured femoral artery as compared to control femoral artery [4]: 3.7 fold
cellular internalization in presence of excess C-ANF peptide (NPR-C; 293T-NPR-C cells): Internalization was blocked; also recorded: inhibition of internalization
cellular internalization (NPR-C; LS668, 30-min incubation at 37° C., 5% CO2, stably transfected 293T-NPR-C cells): selectively internalized; also recorded: cellular internalization
